Numbered stars: 1 amine (or outer) side, 2 acyl side, 3 side chain; on linkers, the order of the positions; unused ones are H or OH. Square brackets hold non-standard residues; d marks the D form. Peptide text beside a SMILES is read from it. Ala(4-thiazolyl) = N[C@@H](Cc1cscn1)C(=O)O; Phe(4-Cl) = N[C@@H](Cc1ccc(Cl)cc1)C(=O)O; X1 = O=C(CSC[C@H](Cc1cscn1)N[*:1])[*:2]; Phe(4-F) = N[C@@H](Cc1ccc(F)cc1)C(=O)O; NHCH2CH2SCH2CO = O=C(CSCCN[*:1])[*:2]; NMeF = CN[C@@H](Cc1ccccc1)C(=O)O; Tle = CC(C)(C)[C@H](N)C(=O)O; hSer = N[C@@H](CCO)C(=O)O; NMeA = CN[C@@H](C)C(=O)O; dNMeA = CN[C@H](C)C(=O)O; Nme = COCCNCC(=O)O
Assay: Evaluation of cell membrane permeability (MDCKII permeation test, Papp)
Type: in vitro ADME
Settings: MDCK, MDCKII cell layer, 10 μM in HBSS, apical to basal, 37° C.; for Papp A→B: 2 hours
Method: Evaluation of the cell membrane permeability of the cyclic peptide according to the embodiment of the present invention was carried out.
300 μL of MDCKII cells (ECACC standard cell line) were seeded at a density of 1.0×10^6 cells/mL onto an insert (dedicated for a 24-well plate, pore diameter: 3.0 μm, manufactured by Corning Incorporated) and cultured at 37° C. in a 5% CO2 environment. After three days, the electric resistance value of the cell layer was measured (using a measuring device), and it was confirmed that the cell layer had high barrier properties (>100 Ω·cm^2).
After the insert was washed by being immersed in HBSS (phenol red-free, the same applies hereinafter), 200 μL of a sample prepared in 10 μM/HBSS was added thereto, and the insert was allowed to stand in a low-adsorption 24-well plate containing 900 μL of HBSS (37° C., 5% CO2). After 2 hours, each liquid of an upper layer (apical) and a lower layer (basal) of the insert (10 μL for apical and 500 μL for basal) was recovered. After testing, no leakage was confirmed with Lucifer Yellow, which is a non-permeable fluorescent dye.
The device used was LC/MS/MS (triple quadrupole type).
Eluent: A) 5 mM ammonium formate, 0.2% formic acid/H2O, B) 0.1% formic acid/MeCN, flow rate: 0.5 mL/min, injection volume: 2 μL, column: ACQUITY UPLC BEH C18 Column, 1.7 μm, 2.1 mm×50 mm (manufactured by Waters Corporation), temperature: 70° C., gradient (% B): 2% (0 to 0.5 min)→98% (2 to 3 min)→2% (3 to 5 min), ionization: ESI, detection mode: MRM (positive)
Based on the calculation expression shown in Expression (1), a permeability coefficient Papp, which represents the membrane permeability, was calculated from each quantitative value.
C0: initial concentration (10 μM)
S: surface area (0.33 cm^2) of single layer membrane
dC/dt: concentration change at basal [μM/s]

Papp A→B [×10⁻⁶ cm/s]	Papp A→B at 2 h, 10 μM (dog) [×10⁻⁶ cm/s]	Compound
0.1 to 0.25		COCC[C@@H]1NC(=O)[C@H](C)N(C)C(=O)[C@H](Cc2ccccc2)N(C)C(=O)[C@H](Cc2ccc(Cl)cc2)NC(=O)[C@H]([C@@H](C)O)NC(=O)[C@H](Cc2ccc(F)cc2)NC(=O)[C@@H]2CCCN2C(=O)CSCCNC(=O)[C@H](C)N(C)C1=O [compound 4] (cyclo([NMeA][hSer](Me)[NMeA][NHCH2CH2SCH2CO]P[Phe(4-F)]T[Phe(4-Cl)][NMeF]))
0.1 to 0.25		COCC[C@@H]1NC(=O)[C@H](C)N(C)C(=O)[C@H](Cc2ccccc2)N(C)C(=O)[C@H](Cc2ccc(Cl)cc2)NC(=O)[C@H]([C@@H](C)O)NC(=O)[C@H](Cc2ccc(F)cc2)NC(=O)[C@@H]2CCCN2C(=O)CSC[C@H](Cc2cscn2)NC(=O)[C@H](C)N(C)C1=O [compound 5] (cyclo([NMeA][hSer](Me)[NMeA][X1]P[Phe(4-F)]T[Phe(4-Cl)][NMeF]))
	< 0.1	COCC[C@@H]1NC(=O)[C@H]2CCCN2C(=O)[C@H](Cc2ccccc2)N(C)C(=O)[C@H](Cc2ccc(Cl)cc2)NC(=O)[C@H](C(C)(C)C)NC(=O)[C@H](Cc2ccc(F)cc2)NC(=O)[C@H](C)N(C)C(=O)[C@@H](C)N(C)C(=O)[C@H](Cc2cscn2)NC(=O)[C@H](C)N(C)C1=O [Comparative Example 1, reference compound] (cyclo([Ala(4-thiazolyl)][dNMeA][NMeA][Phe(4-F)][Tle][Phe(4-Cl)][NMeF][dP][hSer](Me)[NMeA]))
0.1 to 0.25		COCC[C@@H]1NC(=O)[C@H](C)N(C)C(=O)[C@H](Cc2ccccc2)N(C)C(=O)[C@H](Cc2ccc(Cl)cc2)NC(=O)[C@H]([C@@H](C)O)NC(=O)[C@H](Cc2ccc(F)cc2)NC(=O)CN(CCOC)C(=O)CSC[C@H](Cc2cscn2)NC(=O)[C@H](C)N(C)C1=O [compound 6] (cyclo([NMeA][hSer](Me)[NMeA][X1][Nme][Phe(4-F)]T[Phe(4-Cl)][NMeF]))
0.25 to 0.5		COCC[C@@H]1NC(=O)[C@@H](C)N(C)C(=O)[C@H](Cc2ccccc2)N(C)C(=O)[C@H](Cc2ccc(Cl)cc2)NC(=O)[C@H]([C@@H](C)O)NC(=O)[C@H](Cc2ccc(F)cc2)NC(=O)[C@@H]2CCCN2C(=O)CSCCNC(=O)[C@H](C)N(C)C1=O [compound 3] (cyclo([NMeA][NHCH2CH2SCH2CO]P[Phe(4-F)]T[Phe(4-Cl)][NMeF][dNMeA][hSer](Me)))
